Each compound was assayed on lipid peroxidation in murine brain homogenate (assay: Inhibitory effects on lipid peroxidation (murine brain homogenate)). Conditions: 30 μM test compound; no added iron; 37° C., 60 minutes; pH 7.2 to 7.8.
Type: biochemical, murine (C57 black mouse)
Protocol: (§1) The test was carried out according to the method described in Method in Enzymol., Vol. 52, page 302, 1978. A C57 black mouse was killed by cervical dislocation, and the whole brain extracted from the dissected head was washed with 20 mM phosphate buffer (hereinafter referred to as "PBS-2"). Then, the brain was added with PBS-2 in an amount of 19 times its wet weight, and the mixture was disrupted and homogenized with a homogenizer "Polytron" (manufactured by Kinematica). The thus prepared 5% solution of the murine brain homogenate in PBS-2 was diluted 1:5 with fresh PBS-2. To 800 μl of the resulting 1% solution of the murine brain homogenate in PBS-2 (protein content: 0.8 to 1.0 mg/ml) were successively added 100 μl of a PBS-2 solution of each of the test compounds shown in Table 7 below and 100 μl of an aqueous solution of ammonium iron (II) sulphate. The final concentration of the test compounds and ammonium iron (II) sulphate were adjusted to be 1 mM and 100 μM, respectively. If test compounds were not soluble in PBS-2 alone, an aqueous sodium hydroxide solution or DMSO was added. The pH of the solution was adjusted to 7.2 to 7.8.
Test for Inhibitory Effects on Lipid Peroxidation
To 900 μl of a 5% solution of the murine brain homogenate in PBS-2 prepared in the same way as described in Test Example 3 was added 100 μl of a PBS-2 solution of each of the test compounds shown in Table 8 below. The final concentration of the test compounds was adjusted to be 30 μM. If test compounds were not soluble in PBS-2 alone, an aqueous solution of sodium hydroxide or DMSO was added. The pH of the solution was adjusted to 7.2 to 7.8.
The solution after heated at 37° C. for 60 minutes was added with 1.0 ml of an aqeuous solution of thiobarbituric acid/trichloroacetic acid/hydrochloric acid, and the mixture was heated in a boiling water bath for 15 minutes. After ice-cooling, the solution was extracted with 2.0 ml of 1-butanol to prepare a sample for determining the lipid peroxide in the same way as described in Test Example 1. […] [formula] A4 : Absorbance when a test compound was added. A5 : Absorbance when a test compound was not added.
A6 : Abosrbance when a test compound was not added and heating at 37° C. for […] was not carried out.

| SMILES | % Inhibition of lipid peroxidation |
| --- | --- |
| Cc1ncc(CO)c(CNC(Cc2c[nH]cn2)C(N)=O)c1O (stereo not shown) [Synthesis Example 23] | 39% |
| Cc1ncc(CO)c(CNC(CC(=O)O)C(=O)O)c1O (stereo not shown) [Synthesis Example 20] | 91% |
| Cc1ncc(CO)c(CNC(CCCNC(=N)N)C(=O)O)c1O (stereo not shown) [Synthesis Example 24] | 85% |
| Cc1ncc(CO)c(CNC(C(=O)O)C(C)O)c1O (stereo not shown) [Synthesis Example 19] | 59% |
| Cc1ncc(CO)c(CNC(Cc2ccc(O)cc2)C(=O)O)c1O (stereo not shown) [Synthesis Example 26] | 39% |

What follows are compounds tested on lipid peroxidation in homogenate of murine swiss 3T3 cells (assay: Inhibitory effects on UV-induced lipid peroxidation (homogenate of murine swiss 3T3 cells)). Conditions: 1 mM test compound; UVB 0.4 mW/cm^2, 90 min; pH 7.2 to 7.8; TBA, 535 nm.
Type: biochemical
Protocol: Test for Inhibitory Effects on UV-induced Lipid Peroxidation
The test was carried out on the basis of the methods described in Biochim. Biophys. […] Namely, 12 μl of an aqueous sodium hydroxide solution of each of the test compounds shown in Table 5 below was added to 1.2 ml of a homogenate of murine swiss 3T3 cells (i.e. a kind of murine skin cells) prepared by a conventional method in 20 mM phosphate buffer (protein content: 1.5 to 1.8 mg/ml). The final concentration of the test compounds was adjusted to be 1 mM and the pH of the solution was adjusted to 7.2 to 7.8. If test compounds were not soluble in an aqueous sodium hydroxide solution, they were dissolved in N,N-dimethyl sulfoxide (DMSO).
This solution (1.1 ml) was irradiated with UV rays (0.4 mW/cm^2, 90 min.) using a UVB lamp "EB-280C/J" (manufactured by Spectronics). To an aliquot (1.0 ml) of this solution were successively added 0.2 ml of an aqueous solution of sodium dodecyl sulfate and 1.0 ml of an aqueous solution of thiobarbituric acid/trichloroacetic acid/hydrochloric acid, and the mixed solution was heated in a boiling water bath for 15 minutes. After ice-cooling, the solution was extracted with 1.0 ml of 1-butanol to prepare a sample for determining peroxide lipid as absorbance at a wavelength of 535 nm using a spectrophotometer "Model 320" (manufactured by Hitachi).
(§2) [formula] A1 : Absorbance when a test compound was added. A2 : Absorbance when a test compound was not added.
A3 : Absorbance when a test compound was not added and UV rays were not irradiated.

| SMILES | % Inhibition of UV-induced lipid peroxidation |
| --- | --- |
| O=S(=O)(O)CCNCc1ccccc1O [Synthesis Example 13] | 53% |
| O=C(O)CCC(NCc1ccccc1O)C(=O)O (stereo not shown) [Synthesis Example 5] | 52% |
| NC(=O)CNCc1ccccc1O [Synthesis Example 11] | 77% |
| CC(O)C(NCc1ccccc1O)C(=O)O (stereo not shown) [Synthesis Example 10] | 56% |
| O=C(O)CNCc1ccccc1O [Synthesis Example 9] | 60% |
| O=C(O)CCNCc1ccccc1O [Synthesis Example 12] | 29% |
| OCCNCc1ccccc1O [Synthesis Example 14] | 45% |
| O=C(O)CN(CCN(CC(=O)O)CC(=O)O)CC(=O)O [EDTA, reference compound] | 34% |
| CC(C)C(NCc1ccccc1O)C(=O)O (stereo not shown) [Synthesis Example 8] | 60% |
| CC(NCc1ccccc1O)C(=O)O (stereo not shown) [Synthesis Example 6] | 66% |
| Oc1ccccc1CNCCc1c[nH]cn1 [Synthesis Example 15] | 51% |
| O=C(O)C(Cc1ccccc1)NCc1ccccc1O (stereo not shown) [Synthesis Example 7] | 48% |

What follows are compounds tested on lipid peroxidation in murine brain homogenate (assay: Inhibitory effects on metal ion-induced lipid peroxidation (murine brain homogenate)). Conditions: 1 mM test compound; 100 μM ammonium iron (II) sulphate; 37° C., 30 minutes; pH 7.2 to 7.8.
Type: biochemical, murine (C57 black mouse)
Protocol: Test for Inhibitory Effects on Metal Ion-induced Lipid Peroxidation
as §1
The solution after heated at 37° C. for 30 minutes was added with 2.0 ml of an aqueous solution of thiobarbituric acid/trichloroacetic acid/hydrochloric acid, and the mixture was heated in a boiling water bath for 15 minutes. After ice-cooling, the solution was extracted with 1.0 ml of 1-butanol to prepare a sample for determining the peroxide lipid in the same way as described in Test Example 1.
as §2
A3 : Absorbance when a test compound was not added and heating at 37° C. for 30 minutes was not carried out.

| SMILES | % Inhibition of metal ion-induced lipid peroxidation |
| --- | --- |
| Oc1ccc2ccccc2c1C=NCCc1c[nH]cn1 [Synthesis Example 46] | 80% |
| O=C(O)C(Cc1ccccc1)N=Cc1c(O)ccc2ccccc12 (stereo not shown) [Synthesis Example 54] | 83% |
| COC(=O)CCC(N=Cc1c(O)ccc2ccccc12)C(=O)OC (stereo not shown) [Synthesis Example 49] | 81% |
| NC(=O)CCC(N=Cc1c(O)ccc2ccccc12)C(=O)O (stereo not shown) [Synthesis Example 51] | 84% |
| COC(=O)C(Cc1c[nH]cn1)N=Cc1c(O)ccc2ccccc12 (stereo not shown) [Synthesis Example 45] | 85% |
| COC(=O)C(CO)N=Cc1c(O)ccc2ccccc12 (stereo not shown) [Synthesis Example 40] | 88% |
| O=C(O)CNC(=O)CN=Cc1c(O)ccc2ccccc12 [Synthesis Example 66] | 20% |
| O=C(O)C(CO)N=Cc1cc([N+](=O)[O-])ccc1O (stereo not shown) [Synthesis Example 59] | 11% |
| OCC(Cc1c[nH]cn1)N=Cc1c(O)ccc2ccccc12 (stereo not shown) [Synthesis Example 33] | 95% |
| NC(=O)CC(N=Cc1c(O)ccc2ccccc12)C(=O)O (stereo not shown) [Synthesis Example 44] | 90% |
| CC(O)C(N=Cc1c(O)ccc2ccccc12)C(=O)O (stereo not shown) [Synthesis Example 41] | 79% |
| O=C(O)C(CO)N=Cc1cc(Cl)ccc1O (stereo not shown) [Synthesis Example 57] | 44% |
| Oc1ccc2ccccc2c1C=NCCc1c[nH]c2ccccc12 [Synthesis Example 56] | 57% |
| CC(C)C(CO)N=Cc1c(O)ccc2ccccc12 (stereo not shown) [Synthesis Example 37] | 30% |
| CC(C)CC(N=Cc1c(O)ccc2ccccc12)C(=O)O (stereo not shown) [Synthesis Example 38] | 74% |
| O=C(CCC(N=Cc1c(O)ccc2ccccc12)C(=O)O)NO (stereo not shown) [Synthesis Example 50] | 85% |

| SMILES | % Inhibition of metal ion-induced lipid peroxidation |
| --- | --- |
| O=C(O)C(CO)N=Cc1cc(Br)ccc1O (stereo not shown) [Synthesis Example 58] | 40% |
| COC(=O)C(Cc1ccccc1)NC(=O)C(CC(=O)O)N=Cc1c(O)ccc2ccccc12 (stereo not shown) [Synthesis Example 67] | 38% |
| O=C(O)C(Cc1c[nH]cn1)N=Cc1cc(Br)ccc1O (stereo not shown) [Synthesis Example 62] | 45% |
| O=C(O)C(Cc1ccc(O)c(O)c1)N=Cc1c(O)ccc2ccccc12 (stereo not shown) [Synthesis Example 32] | 83% |
| CCC(C)C(N=Cc1c(O)ccc2ccccc12)C(=O)O (stereo not shown) [Synthesis Example 39] | 50% |
| NC(=O)CN=Cc1c(O)ccc2ccccc12 [Synthesis Example 35] | 16% |
| O=C(O)CN=Cc1c(O)ccc2ccccc12 [Synthesis Example 34] | 57% |
| CSCCC(N=Cc1c(O)ccc2ccccc12)C(=O)O (stereo not shown) [Synthesis Example 42] | 86% |
| O=C(O)C(Cc1c[nH]c2ccccc12)N=Cc1c(O)ccc2ccccc12 (stereo not shown) [Synthesis Example 55] | 87% |
| CCC(C)C(N=Cc1c(CO)cnc(C)c1O)C(=O)O (stereo not shown) [Synthesis Example 72] | 14% |
| O=S(=O)(O)CCN=Cc1c(O)ccc2ccccc12 [Synthesis Example 65] | 73% |
| CC(C)C(N=Cc1cc(Cl)ccc1O)C(=O)O (stereo not shown) [Synthesis Example 64] | 60% |
| CC(N=Cc1c(O)ccc2ccccc12)C(=O)O (stereo not shown) [Synthesis Example 36] | 80% |
| COc1cccc(C=NC(Cc2c[nH]cn2)C(=O)O)c1O (stereo not shown) [Synthesis Example 63] | 60% |
| O=C(O)C(Cc1c[nH]cn1)N=Cc1cc(Cl)ccc1O (stereo not shown) [Synthesis Example 61] | 45% |
| O=C(O)CC(N=Cc1c(O)ccc2ccccc12)C(=O)O (stereo not shown) [Synthesis Example 43] | 40% |
